# Measured values from patent publication US10981932B2, “Macrocyclic indole derivatives” (Bayer Aktiengesellschaft, priority 2016, dated 2021).
# Where a name gives a salt, the structure may show the parent alone. Read-outs that look alike come from different tables or passages of the source.
# Columns and labels:
# MCL-1 = MCL-1 (Homo sapiens, UniProt Q07820); assay: Protein-protein interaction assay MCL-1/Noxa BH3 peptide (MCL-1 assay), TR-FRET; assay type: binding; conditions: MBP-MCL-1 / Noxa BH3-derived peptide, median
# Chain of MCL-1 (Q07820 whole entry): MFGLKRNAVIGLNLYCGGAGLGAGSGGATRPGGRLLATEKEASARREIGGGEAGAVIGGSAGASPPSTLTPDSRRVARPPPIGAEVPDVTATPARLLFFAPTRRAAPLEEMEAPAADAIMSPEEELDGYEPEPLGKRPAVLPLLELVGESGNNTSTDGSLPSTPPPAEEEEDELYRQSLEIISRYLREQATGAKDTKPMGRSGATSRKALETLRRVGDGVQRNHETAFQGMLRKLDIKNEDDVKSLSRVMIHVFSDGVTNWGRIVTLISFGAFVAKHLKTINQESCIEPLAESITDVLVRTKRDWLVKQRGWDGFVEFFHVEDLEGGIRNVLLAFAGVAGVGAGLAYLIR
# Procedure, shortened: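 Displacement of the biotinylated Noxa BH3 peptide from MBP-tagged human MCL-1 (1 nM) is detected by time-resolved FRET. Compounds are tested in duplicate across eleven concentrations up to 20 μM, incubated 1 h at 22 °C and overnight at 4 °C, and IC50 is fitted with a four-parameter equation.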
# SUDHL5 [1] = assay: Induction of caspase-3/7 activity (Caspase-Glo 3/7), SUDHL5; assay type: cell-based; conditions: caspase-3/7 induction, SUDHL5 cells, 3 h treatment, median
# Procedure, shortened: (§1)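 Caspase-Glo 3/7 luminescence, 3 h compound exposure, 37 °C, humidified. Minus medium-only blank. EC50 fit: C0=1, plateau = reference max induction.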
# SUDHL10 [2] = assay: Induction of caspase-3/7 activity (Caspase-Glo 3/7), SUDHL10; assay type: cell-based; conditions: caspase-3/7 induction, SUDHL10 cells, 3 h treatment, median
# Procedure, shortened: as §1
# SUDHL5 [3] = assay: Anti-proliferative effect (CellTiter-Glo, 72 h), SUDHL5; assay type: cell-based; conditions: SUDHL5 cells, antiproliferation, median, read-out: Antiproli SUDHL5 [M] (median)
# Procedure, shortened: (§2)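 Viable cells quantified with CellTiter-Glo after 72 h at 37 °C; rim wells excluded; day 0 plate as baseline.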
# A2780 = assay: Anti-proliferative effect (CellTiter-Glo, 72 h), A2780; assay type: cell-based; conditions: A2780 cells, median, read-out: IC50 antiproliferation assay A2780 [M] (median)
# Procedure, shortened: as §2
# SUDHL5 [4] = assay: Induction of cytotoxicity (CellTiter-Glo, 5 h), SUDHL5
# SUDHL10 [5] = assay: Induction of cytotoxicity (CellTiter-Glo, 5 h), SUDHL10
# Method: Therefore, cytotoxicity assays were run in parallel in SUDHL5 and SUDHL10 cells.
# The different cell lines were plated in culture medium (RPMI 1640 [GIBCO #22400-089]supplemented with 10% Fetal Bovine Serum) at a density of 3.300 cells in 30 μl/well in a sterile, solid black, flat bottom, polystyrene, TC-treated 384-well microplate (Corning #3571) using Multidrop Combi Reagent Dispenser. As a control, medium without cells was also added to the plate. Cells were incubated in a humidified incubator at 37° C. overnight. On the next day, the cells were treated with compounds (stock solution, 10 mM in DMSO) using the HP D300 Digital Dispenser in a concentration range of 3.3×10e-5 M (33 μM) to 5×10e-9 M (5 nM) in a single-dot curve with at least 16 dilutions and a DMSO concentration of 0.33%. Rim wells were excluded. The cells were incubated for 5 h hours in a humidified incubator at 37° C. After this incubation, 30 μl of CellTiter-Glo@ Luminescent Cell Viability reagent (Promega, G7573) was added to each well using the Multidrop Combi Reagent Dispenser, followed by 15 min incubation on a shaker at room temperature. Finally, luminescence was read at 0.1 ms, with a gain of 3000 using the PHERAstar FS microplate reader (BMG Labtech).
# The Bella DRC Master Sheet was used to calculate IC50s, with fixed CI=0 and C0=1.
# [6] = Homo sapiens, SU-DHL-5, 72 h, 72 h
# [7] = Homo sapiens, SU-DHL-5, 5 h, read-out: Cytotox SUDHL5 [M] (median), SUDHL5 cells, cytotoxicity induction, CellTiter-Glo, 5 h, median
# [8] = Homo sapiens, SU-DHL10, 5 h, read-out: Cytotox SUDHL10 [M] (median), SUDHL10 cells, cytotoxicity induction, CellTiter-Glo, 5 h, median
# [9] = read-out: Cytotox SUDHL5 [M] (median), SUDHL5 cells, cytotoxicity induction, CellTiter-Glo, 5 h incubation, median
# [10] = read-out: Cytotox SUDHL10 [M] (median), SUDHL10 cells, cytotoxicity induction, CellTiter-Glo, 5 h incubation, median
Structure (SMILES),IC50 (MCL-1) [µM],"EC50 (SUDHL5 [1]; Homo sapiens, SU-DHL-5, 3 h) [µM]","EC50 (SUDHL10 [2]; Homo sapiens, SU-DHL10, 3 h) [µM]","IC50 (SUDHL5 [3]; Homo sapiens, SU-DHL-5, 72 h, 72 h incubation) [M]","IC50 (A2780; Homo sapiens, A2780, 72 h) [M]",IC50 (SUDHL5 [3]; [6]) [M],EC50 (SUDHL5 [1]) [µM],EC50 (SUDHL10 [2]) [µM],IC50 (SUDHL5 [3]; 72 h incubation) [M],IC50 (A2780) [M],"IC50 (SUDHL5 [4]; Homo sapiens, SU-DHL-5, 5 h, read-out: Cytotox SUDHL5 [M] (median), SUDHL5 cells, cytotoxicity induction, CellTiter-Glo, 5 h incubation, median)","IC50 (SUDHL10 [5]; Homo sapiens, SU-DHL10, 5 h, read-out: Cytotox SUDHL10 [M] (median), SUDHL10 cells, cytotoxicity induction, CellTiter-Glo, 5 h incubation, median)",IC50 (SUDHL5 [4]; [7]) [M],IC50 (SUDHL10 [5]; [8]) [M],IC50 (SUDHL5 [4]; [9]) [M],IC50 (SUDHL10 [5]; [10]) [M]
"Cc1ccc2c(C(C)CCOc3cccc4ccccc34)c(C(=O)O)n3c2c1-c1c(nn(C)c1C)COCCCC3 (racemic) [Example 362, 11,12,13-trimethyl-1-(4-(naphthalen-1-yloxy)butan-2-yl)-4,5,6,7,9,11-hexahydropyrazolo[4′,3′:9,10][1,6]oxaazacycloundecino[8,7,6-hi]indole-2-carboxylic Acid (Mixture of Stereoisomers)]",0.0187,26.2,> 33,,1.41e-05,1.27e-05,,,,,,,2.72e-05,> 3.3e-05,,
"CN1CCN(Cc2c3c(nn2C)COC/C=C\Cn2c(C(=O)O)c(CCCOc4cccc5ccccc45)c4cccc-3c42)CC1 (racemic) [Example 358, (rac)-(11 Z)-2-methyl-3-[(4-methylpiperazin-1-yl)methyl]-7-[3-(naphthalen-1-yloxy)propyl]-2,10,13,15-tetrahydropyrazolo[4′,3′:9,10][1,6]oxazacycloundecino[8,7,6-hi]indole-8-carboxylic Acid]",0.0173,> 33,> 33,,1.2e-05,2.06e-05,,,,,,,> 3.3e-05,> 3.3e-05,,
"Cc1nn(C)c2c1-c1cccc3c(CCCOc4cccc5cc(Cl)ccc45)c(C(=O)O)n(c13)CCCCOC2 (single isomer, unassigned; enantiomer 2) [Example 042, 7-{3-[(6-chloronaphthalen-1-yl)oxy]propyl}-1,3-dimethyl-1,10,11,12,13,15-hexahydropyrazolo[4′3′:9,10][1,6]oxazacycloundecino[8,7,6-hi]indole-carboxylic acid-N-ethylethanamine Salt (Enantiomer 2)]",0.0566,,,,,,> 33,> 33,4.97e-06,1.02e-05,,,,,> 3.3e-05,3e-05
"CCc1nn(C)c2c1-c1c(C)ccc3c(C(C)CCOc4cccc5cc(F)ccc45)c(C(=O)O)n(c13)CCCCOC2 (single isomer, unassigned) [Example 264, 3-ethyl-7-{4-[(6-fluoronaphthalen-1-yl)oxy]butan-2-yl}-1,4-dimethyl-1,10,11,12,13,15-hexahydropyrazolo[4′,3′:9,10][1,6]oxazacycloundecino[8,7,6-hi]indole-8-carboxylic Acid]",0.132,,,,,,> 33,> 33,1.67e-05,1.92e-05,,,,,> 3.3e-05,> 3.3e-05

# The next lines start with results.
IC50 (MCL-1) [µM],"EC50 (SUDHL5 [1]; Homo sapiens, SU-DHL-5, 3 h) [µM]","EC50 (SUDHL10 [2]; Homo sapiens, SU-DHL10, 3 h) [µM]","IC50 (SUDHL5 [3]; Homo sapiens, SU-DHL-5, 72 h, 72 h incubation) [M]","IC50 (A2780; Homo sapiens, A2780, 72 h) [M]",IC50 (SUDHL5 [3]; [6]) [M],EC50 (SUDHL5 [1]) [µM],EC50 (SUDHL10 [2]) [µM],IC50 (SUDHL5 [3]; 72 h incubation) [M],IC50 (A2780) [M],Structure (SMILES),"IC50 (SUDHL5 [4]; Homo sapiens, SU-DHL-5, 5 h, read-out: Cytotox SUDHL5 [M] (median), SUDHL5 cells, cytotoxicity induction, CellTiter-Glo, 5 h incubation, median)","IC50 (SUDHL10 [5]; Homo sapiens, SU-DHL10, 5 h, read-out: Cytotox SUDHL10 [M] (median), SUDHL10 cells, cytotoxicity induction, CellTiter-Glo, 5 h incubation, median)",IC50 (SUDHL5 [4]; [7]) [M],IC50 (SUDHL10 [5]; [8]) [M],IC50 (SUDHL5 [4]; [9]) [M],IC50 (SUDHL10 [5]; [10]) [M]
0.00682,8.26,> 33,1.32e-05,> 3.3e-05,,,,,,"COCCn1nc(C2CC2)c2c1COCCCCn1c(C(=O)O)c(CCCOc3cccc4ccccc34)c3cccc-2c31 (racemic) [Example 102, (rac)-3-Cyclopropyl-1-(2-methoxyethyl)-7-[3-(naphthalen-1-yloxy)propyl]-1,10,11,12,13,15-hexahydropyrazolo[4′,3′:9,10][1,6]oxazacycloundecino[8,7,6-hi]indole-8-carboxylic Acid]",6.12e-06,> 3.3e-05,,,,
0.0259,,,,,,> 33,32.7,5.73e-06,2.78e-05,"Cc1nn(C)c2c1-c1cccc3c(CCCOc4cccc5ccccc45)c(C(=O)O)n(c13)CCCOC2 (single isomer, unassigned; enantiomer 2) [Example 045, 9,11-dimethyl-1-[3-(naphthalen-1-yloxy)propyl]-5,6,8,9-tetrahydro-4H-pyrazolo[4′,3′:8,9][1,5]oxazecino[7,6,5-hi]indole-2-carboxylic acid-N-ethylethanamine Salt (Enantiomer 2)]",,,,,2.59e-05,2.89e-05
